Literature values, collected in patent US20250120959A1, “NEW FORMULATIONS OF PITOLISANT AND METHODS OF USE” (Bioprojet Pharma, priority 2023, published 2025).
Where a name gives a salt, the structure may show the parent alone.

- pKa: approximately 10.5
SMILES: Clc1ccc(CCCOCCCN2CCCCC2)cc1 [Formula (Ia), 1-[3-[3-(4-chlorophenyl)propoxy]propyl]-piperidine monohydrochloride]
